The structures appear in SMILES notation.

One experiment deals with T1, α1G T-type Ca^2+ channel (Homo sapiens, UniProt O43497).
T1 construct: expressed in transfected cells; host or cells: HEK293 cells, G-418 selected
The experiment in a line: T-type Ca2+ channel blocking activity in HEK293 cells, whole-cell patch clamp. The experiment is classed as cell-based. Particulars: HEK293 cells expressing α1G; for inhibition at 10 µM: 10 μM (0.1% DMSO), peak current; for IC50: whole-cell patch clamp, -100 mV to -30 mV. As to the method:
(§1) In order to evaluate the pharmaceutical effects induced by the compounds of the present invention, the inhibitory effects were examined according to the following procedure. As the first step, those that show more than 50% of inhibition to the calcium channel (α1H) expressed in Xenopus oocytes were screened. For the second step, α1G Ca^2+ channel activities expressed in HEK 293 cells were measured to determine the effective inhibition concentration IC50.
Measurement of T-type Ca^2+ Channel Blocking Activity of HEK293 Cells by Using Electrophysiological Method
The culture medium was prepared by adding 10% fetal bovine serum (FBS) and 1% penicillin/streptomycin (v/v) to Dulbecco's modified Eagle's medium (DMEM). The cells were cultured in an incubator having a wet condition of 95% air/5% CO2 at 37° C. The medium was replaced every 3 to 4 days and the cells were sub-cultured every week such that only the cells that expressed α1G T-type Ca^2+ channels could be grown using G-418 (0.5 mg/ml) solution. The cells that were used to measure T-type Ca^2+ channel activity were incubated on a cover slip coated by poly-L-lysine (0.5 mg/ml) every time they were sub-cultured and then recorded after 2 to 3 days. T-type Ca^2+ channel currents at the single-cell level were determined by the electrophysiological whole-cells patch clamp technique using EPC-9 amplifier (HEKA, German). Extracellular solution of NaCl 140 mM, CaCl2 2 mM, HEPES 10 mM (pH 7.4), and intracellular solution of KCl 130 mM, HEPES 10 mM, EGTA 11 mM, MgATP 5 mM (pH 7.4) were used for T-type Ca^2+ channel blocking activity. As the low voltage-activated T-type Ca^2+ channel activity protocol, a fine glass electrode of 3-4 MΩ resistance containing the above-prepared intracellular solution was inserted into a single cell to become the whole-cell recording mode, followed by fixing the potential of the cell membrane at −100 mV and measuring the inward current of the T-type Ca^2+ channel activity when […] at −30 mV (50 ms duration) every 15 seconds. Each compound was dissolved in 100% dimethylsulfoxide (DMSO) to prepare 10 mM stock solution, and then the effect of T-type Ca^2+ channel current at 1,000 fold diluted concentration of 10 μM (including 0.1% DMSO) was initially measured before IC50 values were determined by testing the effects at the concentration range for the IC50 measurement (in general, 0.1-100 μM). Specifically, cells were treated with each compound along with the extracellular solution until T-type Ca^2+ channel currents were stabilized under whole-cell voltage-clamp conditions and the inhibition level of the peak current due to the compound was calculated and expressed in percentage.
(In general: In patch-clamp work, channel activity is measured electrically.)

The next experiment has as its target T2, calcium channel (α1H) (Homo sapiens, UniProt O95180).
T2 construct: expressed in transfected cells; host or cells: Xenopus oocytes
Briefly: Inhibition of calcium channel (α1H) expressed in Xenopus oocytes (first-step screen). Particulars: read-out: % Inhibition in oocyte (100 μM). Type of experiment: cell-based. Here is the method: as §1

T2 sequence (O95180 whole entry): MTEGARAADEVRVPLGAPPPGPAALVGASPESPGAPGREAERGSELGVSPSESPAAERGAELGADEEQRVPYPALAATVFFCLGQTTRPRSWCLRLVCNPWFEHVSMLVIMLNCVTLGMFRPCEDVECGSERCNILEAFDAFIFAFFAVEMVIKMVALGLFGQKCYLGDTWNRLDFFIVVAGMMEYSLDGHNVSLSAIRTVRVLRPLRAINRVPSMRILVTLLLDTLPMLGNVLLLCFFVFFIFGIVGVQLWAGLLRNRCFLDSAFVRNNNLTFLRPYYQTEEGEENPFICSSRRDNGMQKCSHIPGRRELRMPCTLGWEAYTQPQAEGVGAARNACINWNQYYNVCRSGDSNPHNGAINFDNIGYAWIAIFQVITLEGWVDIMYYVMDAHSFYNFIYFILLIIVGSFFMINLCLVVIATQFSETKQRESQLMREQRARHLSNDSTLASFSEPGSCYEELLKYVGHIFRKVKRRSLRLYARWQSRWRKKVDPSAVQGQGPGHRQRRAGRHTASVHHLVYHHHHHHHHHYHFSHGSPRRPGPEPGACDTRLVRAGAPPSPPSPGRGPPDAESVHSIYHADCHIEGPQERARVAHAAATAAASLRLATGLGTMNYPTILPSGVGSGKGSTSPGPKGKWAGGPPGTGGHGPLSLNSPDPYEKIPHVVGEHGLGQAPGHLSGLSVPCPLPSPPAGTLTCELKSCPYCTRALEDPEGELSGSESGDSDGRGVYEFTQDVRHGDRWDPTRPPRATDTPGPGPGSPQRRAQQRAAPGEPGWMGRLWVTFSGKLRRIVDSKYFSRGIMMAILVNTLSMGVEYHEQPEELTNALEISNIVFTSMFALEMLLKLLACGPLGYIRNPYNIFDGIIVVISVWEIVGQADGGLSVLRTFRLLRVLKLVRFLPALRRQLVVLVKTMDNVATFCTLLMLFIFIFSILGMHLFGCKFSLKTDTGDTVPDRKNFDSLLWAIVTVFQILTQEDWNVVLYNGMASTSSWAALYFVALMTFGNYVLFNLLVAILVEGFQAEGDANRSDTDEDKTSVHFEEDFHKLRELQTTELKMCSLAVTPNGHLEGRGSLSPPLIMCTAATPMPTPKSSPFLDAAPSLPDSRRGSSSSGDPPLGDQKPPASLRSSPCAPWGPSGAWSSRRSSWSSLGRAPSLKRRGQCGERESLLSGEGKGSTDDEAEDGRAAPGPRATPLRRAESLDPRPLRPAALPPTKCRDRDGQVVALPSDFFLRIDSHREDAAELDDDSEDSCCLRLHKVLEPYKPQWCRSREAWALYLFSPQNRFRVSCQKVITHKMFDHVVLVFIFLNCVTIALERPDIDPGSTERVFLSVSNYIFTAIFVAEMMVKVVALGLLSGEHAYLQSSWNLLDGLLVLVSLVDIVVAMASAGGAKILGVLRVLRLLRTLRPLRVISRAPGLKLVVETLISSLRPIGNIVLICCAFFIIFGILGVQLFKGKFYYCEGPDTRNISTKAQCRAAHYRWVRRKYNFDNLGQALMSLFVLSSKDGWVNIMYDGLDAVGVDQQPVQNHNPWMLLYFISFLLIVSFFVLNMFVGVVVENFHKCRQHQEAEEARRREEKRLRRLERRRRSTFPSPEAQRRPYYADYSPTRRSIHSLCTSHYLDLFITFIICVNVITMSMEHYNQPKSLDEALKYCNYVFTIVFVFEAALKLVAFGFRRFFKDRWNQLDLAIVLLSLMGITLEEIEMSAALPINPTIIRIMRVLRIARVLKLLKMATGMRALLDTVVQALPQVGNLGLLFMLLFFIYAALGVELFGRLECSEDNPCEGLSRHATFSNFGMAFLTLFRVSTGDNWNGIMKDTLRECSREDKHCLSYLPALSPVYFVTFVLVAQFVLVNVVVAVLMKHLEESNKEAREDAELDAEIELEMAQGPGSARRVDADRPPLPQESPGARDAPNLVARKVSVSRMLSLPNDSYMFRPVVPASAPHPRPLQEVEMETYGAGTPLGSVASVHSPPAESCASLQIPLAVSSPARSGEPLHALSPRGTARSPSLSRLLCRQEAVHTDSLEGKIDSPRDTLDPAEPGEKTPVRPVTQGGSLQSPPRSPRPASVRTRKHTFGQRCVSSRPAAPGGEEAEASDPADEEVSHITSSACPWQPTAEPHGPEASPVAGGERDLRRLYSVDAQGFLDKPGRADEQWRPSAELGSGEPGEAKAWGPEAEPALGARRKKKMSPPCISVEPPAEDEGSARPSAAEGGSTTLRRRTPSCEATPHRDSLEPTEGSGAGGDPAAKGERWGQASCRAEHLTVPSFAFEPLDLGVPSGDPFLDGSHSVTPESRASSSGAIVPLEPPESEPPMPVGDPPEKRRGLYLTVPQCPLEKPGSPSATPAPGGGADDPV
T1 sequence (O43497 whole entry): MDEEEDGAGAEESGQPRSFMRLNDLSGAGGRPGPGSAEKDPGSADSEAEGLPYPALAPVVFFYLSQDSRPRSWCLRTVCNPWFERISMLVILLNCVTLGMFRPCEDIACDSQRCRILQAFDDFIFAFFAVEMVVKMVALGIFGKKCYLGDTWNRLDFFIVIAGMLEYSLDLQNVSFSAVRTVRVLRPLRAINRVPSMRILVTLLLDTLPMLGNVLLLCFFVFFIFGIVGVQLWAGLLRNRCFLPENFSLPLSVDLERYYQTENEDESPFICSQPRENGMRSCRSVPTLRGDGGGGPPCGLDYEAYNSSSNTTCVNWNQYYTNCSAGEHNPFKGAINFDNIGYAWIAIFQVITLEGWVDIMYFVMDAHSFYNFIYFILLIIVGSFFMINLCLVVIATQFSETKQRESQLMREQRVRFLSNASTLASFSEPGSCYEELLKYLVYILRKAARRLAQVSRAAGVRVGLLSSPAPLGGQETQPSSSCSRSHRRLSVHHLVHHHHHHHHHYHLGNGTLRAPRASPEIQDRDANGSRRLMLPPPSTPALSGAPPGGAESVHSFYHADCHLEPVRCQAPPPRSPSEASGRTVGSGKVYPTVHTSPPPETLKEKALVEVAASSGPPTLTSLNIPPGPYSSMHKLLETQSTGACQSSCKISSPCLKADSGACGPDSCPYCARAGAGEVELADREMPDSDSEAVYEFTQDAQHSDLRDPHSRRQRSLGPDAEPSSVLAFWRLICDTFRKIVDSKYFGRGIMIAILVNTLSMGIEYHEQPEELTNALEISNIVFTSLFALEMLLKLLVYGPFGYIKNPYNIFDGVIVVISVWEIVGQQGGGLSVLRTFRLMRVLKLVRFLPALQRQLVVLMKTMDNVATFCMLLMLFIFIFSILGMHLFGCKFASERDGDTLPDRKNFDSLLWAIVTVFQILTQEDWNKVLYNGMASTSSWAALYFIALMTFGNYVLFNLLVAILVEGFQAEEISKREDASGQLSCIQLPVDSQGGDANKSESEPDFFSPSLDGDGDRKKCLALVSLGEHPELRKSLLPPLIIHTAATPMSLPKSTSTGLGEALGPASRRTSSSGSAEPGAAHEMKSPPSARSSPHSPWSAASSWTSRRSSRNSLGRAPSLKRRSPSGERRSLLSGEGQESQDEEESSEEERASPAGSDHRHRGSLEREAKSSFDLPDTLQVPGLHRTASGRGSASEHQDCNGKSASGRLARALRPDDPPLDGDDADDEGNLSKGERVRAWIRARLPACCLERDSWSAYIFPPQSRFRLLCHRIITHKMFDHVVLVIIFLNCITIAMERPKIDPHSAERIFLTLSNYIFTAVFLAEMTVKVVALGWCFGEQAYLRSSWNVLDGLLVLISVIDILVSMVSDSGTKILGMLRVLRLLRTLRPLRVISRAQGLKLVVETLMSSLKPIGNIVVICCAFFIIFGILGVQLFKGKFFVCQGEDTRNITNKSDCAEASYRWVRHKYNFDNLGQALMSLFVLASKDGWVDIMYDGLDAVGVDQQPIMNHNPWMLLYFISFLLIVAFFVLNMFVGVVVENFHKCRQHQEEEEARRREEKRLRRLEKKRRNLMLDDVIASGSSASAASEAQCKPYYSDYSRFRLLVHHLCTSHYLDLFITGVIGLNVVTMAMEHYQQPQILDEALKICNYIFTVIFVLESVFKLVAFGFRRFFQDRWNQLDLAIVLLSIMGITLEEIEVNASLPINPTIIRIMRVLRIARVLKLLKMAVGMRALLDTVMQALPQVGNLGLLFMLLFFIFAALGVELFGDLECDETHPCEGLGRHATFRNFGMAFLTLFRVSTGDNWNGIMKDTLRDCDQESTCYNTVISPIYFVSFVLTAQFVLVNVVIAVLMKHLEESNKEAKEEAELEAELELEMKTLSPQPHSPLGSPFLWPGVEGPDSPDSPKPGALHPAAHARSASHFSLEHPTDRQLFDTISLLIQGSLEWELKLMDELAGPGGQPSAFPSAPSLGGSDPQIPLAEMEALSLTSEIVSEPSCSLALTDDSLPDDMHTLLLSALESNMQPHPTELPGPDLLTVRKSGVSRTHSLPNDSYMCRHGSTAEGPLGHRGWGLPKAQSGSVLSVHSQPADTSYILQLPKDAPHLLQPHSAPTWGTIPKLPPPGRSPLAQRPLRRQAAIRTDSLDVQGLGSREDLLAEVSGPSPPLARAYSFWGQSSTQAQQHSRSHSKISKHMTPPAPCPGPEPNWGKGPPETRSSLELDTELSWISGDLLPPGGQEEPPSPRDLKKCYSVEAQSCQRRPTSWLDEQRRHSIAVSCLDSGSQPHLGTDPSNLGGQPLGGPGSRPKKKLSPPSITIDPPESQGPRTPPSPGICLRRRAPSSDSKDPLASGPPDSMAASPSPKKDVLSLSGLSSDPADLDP

As a reminder, the inhibition is the share of the control response that was lost under treatment. The term IC50 denotes the point on the concentration scale where inhibition reaches its midpoint. A high value points to lower potency. At α1G T-type Ca^2+ channel, `CCCc1cc(CNCCN2CCN(C(c3ccccc3)c3ccc(Cl)cc3)CC2)nn1-c1ccccc1` (stereo not shown) [compound 94, 3-{2-[4-(4-chlorobenzhydryl)piperazin-1-yl]ethyl}aminomethyl-1-phenyl-5-propylpyrazole] registered an inhibition at 10 µM of 100% and an IC50 of 650 ± 30 nM. Moreover, at calcium channel (α1H), the inhibition at 100 µM was 92.9%.
On α1G T-type Ca^2+ channel, `Cc1cc(CNCCN2CCN(C(c3ccccc3)c3ccc(Cl)cc3)CC2)nn1-c1ccccc1` (stereo not shown) [compound 92, 3-{2-[4-(4-chlorobenzhydryl)piperazin-1-yl]ethyl}aminomethyl-5-methyl-1-phenylpyrazole] yielded an inhibition at 10 µM of 79.2 ± 3.3% and an IC50 of 330 ± 660 nM. For the same molecule, the inhibition at 100 µM at calcium channel (α1H) was found to be 34.5%.
`CCCc1cc(CNCCN2CCN(C(c3ccccc3)c3ccccc3)CC2)nn1-c1ccccc1` [compound 83, 3-{2-[4-(4-diphenylmethyl)piperazin-1-yl]ethyl}aminomethyl-1-phenyl-5-propylpyrazole]: on α1G T-type Ca^2+ channel, the inhibition at 10 µM is 92.4 ± 1.8% and half-maximal inhibition (IC50) required 300 ± 40 nM. Besides, on calcium channel (α1H), the inhibition at 100 µM was 97.8%.
On the same counts, the results for `CCCc1cc(CNCCN2CCN(c3ccc(OC)cc3)CC2)nn1-c1ccccc1` [compound 39, 3-{2-[4-(4-methoxyphenyl)piperazin-1-yl]ethyl}aminomethyl-5-propyl-1-phenylpyrazole] are 91.6 ± 0.5%, 900 ± 70 nM and 67.8%.
On α1G T-type Ca^2+ channel, `COc1ccc(N2CCN(CCNCc3cc(CC(C)C)n(-c4ccccc4)n3)CC2)cc1` [compound 42, 5-iso-butyl-3-{2-[4-(4-methoxyphenyl)piperazin-1-yl]ethyl}aminomethyl-1-phenyl pyrazole] registered an inhibition at 10 µM of 95.6 ± 1.8% and an IC50 of 1040 ± 150 nM. In addition, the inhibition at 100 µM on calcium channel (α1H) is 73.3%.
The matching figures for `CCCc1cc(CNCCN2CCN(c3ccccc3F)CC2)nn1-c1ccccc1` [compound 63, 3-{2-[4-(2-fluorophenyl)piperazin-1-yl]ethyl}aminomethyl-1-phenyl-5-propylpyrazole]: 93.8 ± 1.4%, 660 ± 40 nM and 54.9%.
Take `CCCc1cc(CNCCN2CCN(c3ccccc3)CC2)nn1-c1ccccc1` [compound 4, 5-propyl-1-phenyl-3-[2-(4-phenylpiperazin-1-yl)ethyl]aminomethylpyrazole]: at α1G T-type Ca^2+ channel, the inhibition at 10 µM worked out at 94.5 ± 2.8% and the midpoint of inhibition, the IC50, lay at 300 ± 30 nM. The inhibition at 100 µM on calcium channel (α1H) is 80.1%.
On the same counts, the results for `Cc1cccc(N2CCN(CCNCc3cc(CC(C)C)n(-c4ccccc4)n3)CC2)c1C` [compound 18, 5-iso-butyl-3-{2-[4-(2,3-dimethylphenyl)piperazin-1-yl]ethyl}aminomethyl-1-phenylpyrazole] are 92.7 ± 5.7%, 1020 ± 100 nM and 92%.
For `CC(C)Cc1cc(CNCCN2CCN(c3ccccc3)CC2)nn1-c1ccccc1` [compound 7, 5-iso-butyl-1-phenyl-3-[2-(4-phenylpiperazin-1-yl)ethyl]aminomethylpyrazole], at α1G T-type Ca^2+ channel, the inhibition at 10 µM turned out to be 87.9 ± 2.7% and the IC50 was 820 ± 40 nM. The inhibition at 100 µM at calcium channel (α1H) turned out to be 77.1%.
On the same counts, the results for `CC(C)Cc1cc(CNCCN2CCN(c3ccc([N+](=O)[O-])cc3)CC2)nn1-c1ccccc1` [compound 53, 5-iso-butyl-3-{2-[4-(4-nitrophenyl)piperazin-1-yl]ethyl}aminomethyl-1-phenylpyrazole] are 94.8 ± 1.3%, 1060 ± 20 nM and 74.4%.
Take `CCCc1cc(CNCCN2CCN(c3cccc(Cl)c3)CC2)nn1-c1ccccc1` [compound 76, 3-{2-[4-(3-chlorophenyl)piperazin-1-yl]ethyl}aminomethyl-1-phenyl-5-propylpyrazole]: on α1G T-type Ca^2+ channel, testing at 10 µM gave an inhibition of 75.8 ± 1% and the IC50 is 900 ± 90 nM. In addition, the inhibition at 100 µM at calcium channel (α1H) came to 44.7%.
On to `COc1ccc(N2CCN(CCNCc3cc(C)n(-c4ccccc4)n3)CC2)cc1` [compound 37, 3-{2-[4-(4-methoxyphenyl)piperazin-1-yl]ethyl}aminomethyl-5-methyl-1-phenylpyrazole], for which, at α1G T-type Ca^2+ channel, the inhibition at 10 µM stood at 53 ± 1.6% and the IC50 was determined as 9410 ± 550 nM.
In the case of `CCCc1cc(CNCCN2CCN(C(c3ccccc3)c3ccccc3)CC2)nn1C(C)(C)C` [compound 82, 1-t-butyl-3-{2-[4-(4-diphenylmethyl)piperazin-1-yl]ethyl}aminomethyl-5-propyl pyrazole], at α1G T-type Ca^2+ channel, the inhibition at 10 µM was 60.5 ± 0.6% and 4420 ± 890 nM corresponded to half-maximal inhibition (IC50). Besides, the inhibition at 100 µM at calcium channel (α1H) stood at 24.8%.
On the same counts, the results for `CC(C)Cc1cc(CNCCN2CCN(C(c3ccccc3)c3ccccc3)CC2)nn1C(C)(C)C` [compound 84, 1-t-butyl-5-iso-butyl-3-{2-[4-(4-diphenylmethyl)piperazin-1-yl]ethyl}aminomethylpyrazole] are 89.9 ± 0.3%, 2190 ± 30 nM and 40.4%.
As to `CCCc1cc(CNCCN2CCN(c3ccc([N+](=O)[O-])cc3)CC2)nn1-c1ccccc1` [compound 51, 3-{2-[4-(4-nitrophenyl)piperazin-1-yl]ethyl}aminomethyl-1-phenyl-5-propylpyrazole], at α1G T-type Ca^2+ channel, testing at 10 µM gave an inhibition of 95.3 ± 1.4% and half-maximal inhibition (IC50) was put at 660 ± 70 nM. Besides, at calcium channel (α1H), the inhibition at 100 µM is 51.3%.
On the same counts, the results for `Cc1cc(CNCCN2CCN(C(c3ccccc3)c3ccccc3)CC2)nn1-c1ccccc1` [compound 81, 3-{2-[4-(4-diphenylmethyl)piperazin-1-yl]ethyl}aminomethyl-5-methyl-1-phenylpyrazole] are 97.4 ± 1.3%, 570 ± 60 nM and 95.4%.
On the same counts, the results for `CCCc1cc(CNCCN2CCN(c3cccc(C)c3C)CC2)nn1C(C)(C)C` [compound 15, 1-t-butyl-3-{2-[4-(2,3-dimethylphenyl)piperazin-1-yl]ethyl}aminomethyl-5-propylpyrazole] are 79.4 ± 1.6%, 1430 ± 150 nM and 27.5%.
On α1G T-type Ca^2+ channel, `CCCc1cc(CNCCN2CCN(c3cccc(C)c3C)CC2)nn1-c1ccccc1` [compound 16, 3-{2-[4-(2,3-dimethylphenyl)piperazin-1-yl]ethyl}aminomethyl-1-phenyl-5-propylpyrazole] showed an inhibition at 10 µM of 95.9 ± 0.7% and an IC50 of 580 ± 50 nM. Further, the inhibition at 100 µM at calcium channel (α1H) amounted to 74.6%.
In turn, `CC(C)Cc1cc(CNCCN2CCN(c3ccc([N+](=O)[O-])cc3)CC2)nn1C(C)(C)C` [compound 52, 1-t-butyl-5-iso-butyl-3-{2-[4-(4-nitrophenyl)piperazin-1-yl]ethyl}aminomethylpyrazole] displayed an IC50 against α1G T-type Ca^2+ channel of 1770 ± 200 nM. Also, the inhibition at 100 µM at calcium channel (α1H) amounted to 56.4%.

(Values after patent US7544686B2, “Piperazinylalkylpyrazole derivatives useful as selective T-type calcium channel blockers and preparation method thereof” (Korea Institute of Science and Technology, priority 2005, dated 2009).)
